This passage reports GI50 and TGI results from PubChem BioAssay (NCI).

The structures appear in SMILES notation. Values joined by “and” are separate entries in the source; they are usually repeats but may differ in a detail not shown here. Equal values may be shown once.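 Where inhibition never reached the appropriate level, the endpoint shown equals the highest concentration tested. Otherwise, values were interpolated linearly from a five-concentration, 48-hour dose response in 96-well plates. At the GI50, growth is halved. TGI denotes the concentration required for complete inhibition of growth.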

One experiment relates to SW-620 colon. The experiment can be described thus: NCI anticancer screen, dose series, 48 h.
In the case of `C=CC(=O)Nc1cc(Nc2ncc(C(=O)OC(C)C)c(-c3cn(C)c4ccccc34)n2)c(OC)cc1N(C)CCN(C)C`, the GI50 was 3.25 µM and the TGI amounted to 8.88 µM.

Turning to `COc1cnc2c(c1)C(=O)c1c-2n(CCCN2CCOCC2)c(=O)c2cc(F)ccc12`, the GI50 was 0.149 µM and the TGI is over 100 µM.

Regarding `CN(C)c1ccc(/C=C\C2=[N+](C)c3ccccc3C2(C)C)cc1`, the GI50 is 0.399 µM and the TGI worked out at 19.1 µM.

For the compound `Nc1nc(-n2c(-c3ccccc3)nc3c(Br)cc(Br)cc3c2=O)nnc1-c1cccc(Cl)c1Cl`, the GI50 is 5.15 µM and the TGI was over 100 µM.

`Cc1ccnc2c1ccc1c(C)ccnc12`: the GI50 is 0.429 µM and the TGI is 15.9 µM.

As to `NS(=O)(=O)OC[C@@H]1C[C@@H](n2ccc3c(NC4CCc5ccccc54)ncnc32)C[C@@H]1O` (some centres undefined), the GI50 is 3.34 µM and the TGI was over 77.6 µM.

Take `O=C1/C(=C/c2ccc(O)c(O)c2)CCC/C1=C\c1ccc(O)c(O)c1`: the TGI came out at 23.3 µM.

On to `Nc1ccccc1C#C/C=C\C#Cc1ccccc1OC(F)(F)F`, for which the GI50 was 3.96 µM and the TGI turned out to be 16 µM.

As for `Cc1ccc(CN2CCC(C(=O)Nc3ccc(-c4cc5ccccc5[nH]4)cc3)CC2)o1`, the GI50 is over 100 µM and the TGI was over 100 µM.

With `C=CCOc1ccc2c(C)cc(=O)oc2c1C`, the TGI was over 100 µM.

Compound `Fc1ccc(NC(=S)SCc2ccc3c(c2)OCO3)cc1F` displayed a TGI of over 100 µM.

As for `COc1cc2c(c(OC)c1OC)-c1ccc(NNC(N)=S)c(=O)cc1[C@@H](NC(C)=O)CC2`, the GI50 is 0.365 µM and the TGI is over 100 µM.

On to `CCOC(=O)Cn1c(C(F)(F)F)nc2nc(Cl)c(Cl)nc21`, for which the TGI is over 100 µM.

As to `Cc1ccc(Cl)c2c(N=Nc3ccccc3[N+](=O)[O-])c(O)[nH]c12`, the TGI is over 100 µM.

Consider `OC1CSSC1Cn1cnc2c(Nc3ccc(OCc4cccc(F)c4)c(Cl)c3)ncnc21` (centres undefined), for which the GI50 was 1.17 µM and the TGI worked out at 4.54 µM.

On to `C[C@@H](Oc1cc(-n2cnc3ccc(CN4CCN(C)CC4)cc32)sc1C(N)=O)c1ccccc1C(F)(F)F`, for which the GI50 was < 0.01 µM and 0.00462 µM; the TGI is 12.9 µM and > 10 µM.

A further experiment relates to EKVX NSCLC. Kind of experiment: NCI anticancer screen, dose series, 48 h.
In the case of `C=CC(=O)Nc1cc(Nc2ncc(C(=O)OC(C)C)c(-c3cn(C)c4ccccc34)n2)c(OC)cc1N(C)CCN(C)C`, the GI50 was 0.0181 µM and the TGI worked out at 13.6 µM.

With `COc1cnc2c(c1)C(=O)c1c-2n(CCCN2CCOCC2)c(=O)c2cc(F)ccc12`, the GI50 was 0.482 µM and the TGI was over 100 µM.

Consider `CN(C)c1ccc(/C=C\C2=[N+](C)c3ccccc3C2(C)C)cc1`, for which the GI50 was 1.29 µM and the TGI is over 100 µM.

Take `Nc1nc(-n2c(-c3ccccc3)nc3c(Br)cc(Br)cc3c2=O)nnc1-c1cccc(Cl)c1Cl`: the GI50 is 20.2 µM and the TGI is over 100 µM.

`Cc1ccnc2c1ccc1c(C)ccnc12`: the GI50 is 0.389 µM and the TGI came to 12.7 µM.

Regarding `NS(=O)(=O)OC[C@@H]1C[C@@H](n2ccc3c(NC4CCc5ccccc54)ncnc32)C[C@@H]1O` (some centres undefined), the GI50 is 21.4 µM and the TGI was over 100 µM.

Compound `O=C1/C(=C/c2ccc(O)c(O)c2)CCC/C1=C\c1ccc(O)c(O)c1` yielded a TGI of 32.4 µM.

Take `Nc1ccccc1C#C/C=C\C#Cc1ccccc1OC(F)(F)F`: the GI50 was 9.16 µM and the TGI stood at 58.7 µM.

Turning to `Cc1ccc(CN2CCC(C(=O)Nc3ccc(-c4cc5ccccc5[nH]4)cc3)CC2)o1`, the GI50 is over 100 µM and the TGI was over 100 µM.

For the compound `C=CCOc1ccc2c(C)cc(=O)oc2c1C`, the TGI was over 100 µM.

`Fc1ccc(NC(=S)SCc2ccc3c(c2)OCO3)cc1F` came in with a TGI of 34.1 µM.

As to `COc1cc2c(c(OC)c1OC)-c1ccc(NNC(N)=S)c(=O)cc1[C@@H](NC(C)=O)CC2`, the GI50 was 3.67 µM and the TGI is over 100 µM.

The compound `CCOC(=O)Cn1c(C(F)(F)F)nc2nc(Cl)c(Cl)nc21` showed a TGI of 29.4 µM.

As for `Cc1ccc(Cl)c2c(N=Nc3ccccc3[N+](=O)[O-])c(O)[nH]c12`, the TGI is over 100 µM.

As to `OC1CSSC1Cn1cnc2c(Nc3ccc(OCc4cccc(F)c4)c(Cl)c3)ncnc21` (centres undefined), the GI50 was 0.603 µM and the TGI worked out at 2.35 µM.

Turning to `C[C@@H](Oc1cc(-n2cnc3ccc(CN4CCN(C)CC4)cc32)sc1C(N)=O)c1ccccc1C(F)(F)F`, the TGI is 21.6 µM and > 10 µM.

The next experiment deals with SN12C renal. Kind of experiment: NCI anticancer screen, dose series, 48 h.
As for `C=CC(=O)Nc1cc(Nc2ncc(C(=O)OC(C)C)c(-c3cn(C)c4ccccc34)n2)c(OC)cc1N(C)CCN(C)C`, the GI50 was 3.02 µM and the TGI was found to be 15.4 µM.

Turning to `COc1cnc2c(c1)C(=O)c1c-2n(CCCN2CCOCC2)c(=O)c2cc(F)ccc12`, the GI50 was 0.32 µM and the TGI was over 100 µM.

With `CN(C)c1ccc(/C=C\C2=[N+](C)c3ccccc3C2(C)C)cc1`, the GI50 was 0.351 µM and the TGI turned out to be 14.6 µM.

Turning to `Nc1nc(-n2c(-c3ccccc3)nc3c(Br)cc(Br)cc3c2=O)nnc1-c1cccc(Cl)c1Cl`, the GI50 was 18.8 µM and the TGI was over 100 µM.

As to `Cc1ccnc2c1ccc1c(C)ccnc12`, the GI50 is 0.441 µM and the TGI turned out to be 13.1 µM.

Consider `NS(=O)(=O)OC[C@@H]1C[C@@H](n2ccc3c(NC4CCc5ccccc54)ncnc32)C[C@@H]1O` (some centres undefined), for which the GI50 was 0.614 µM and the TGI is over 100 µM.

For `O=C1/C(=C/c2ccc(O)c(O)c2)CCC/C1=C\c1ccc(O)c(O)c1`, the TGI came out at 24.9 µM.

Regarding `Nc1ccccc1C#C/C=C\C#Cc1ccccc1OC(F)(F)F`, the GI50 is 9.85 µM and the TGI stood at 26.8 µM.

Take `Cc1ccc(CN2CCC(C(=O)Nc3ccc(-c4cc5ccccc5[nH]4)cc3)CC2)o1`: the GI50 is over 100 µM and the TGI is over 100 µM.

Compound `C=CCOc1ccc2c(C)cc(=O)oc2c1C` displayed a TGI of over 100 µM.

With `Fc1ccc(NC(=S)SCc2ccc3c(c2)OCO3)cc1F`, the TGI turned out to be 39.4 µM.

With `COc1cc2c(c(OC)c1OC)-c1ccc(NNC(N)=S)c(=O)cc1[C@@H](NC(C)=O)CC2`, the GI50 was 0.881 µM and the TGI was over 100 µM.

`CCOC(=O)Cn1c(C(F)(F)F)nc2nc(Cl)c(Cl)nc21` yielded a TGI of over 100 µM.

On to `Cc1ccc(Cl)c2c(N=Nc3ccccc3[N+](=O)[O-])c(O)[nH]c12`, for which the TGI is over 100 µM.

Regarding `OC1CSSC1Cn1cnc2c(Nc3ccc(OCc4cccc(F)c4)c(Cl)c3)ncnc21` (centres undefined), the GI50 is 4.02 µM and the TGI is 9.5 µM.

In the case of `C[C@@H](Oc1cc(-n2cnc3ccc(CN4CCN(C)CC4)cc32)sc1C(N)=O)c1ccccc1C(F)(F)F`, the GI50 is 0.116 µM and 0.2 µM; the TGI was 12.1 µM and > 10 µM.

A further experiment concerns CCRF-CEM leukemia. The experiment can be described thus: NCI anticancer screen, dose series, 48 h.
`C=CC(=O)Nc1cc(Nc2ncc(C(=O)OC(C)C)c(-c3cn(C)c4ccccc34)n2)c(OC)cc1N(C)CCN(C)C`: the GI50 was 3.18 µM and the TGI worked out at 17.8 µM.

As to `COc1cnc2c(c1)C(=O)c1c-2n(CCCN2CCOCC2)c(=O)c2cc(F)ccc12`, the GI50 is 0.0853 µM and the TGI is over 100 µM.

As for `CN(C)c1ccc(/C=C\C2=[N+](C)c3ccccc3C2(C)C)cc1`, the GI50 is 0.453 µM and the TGI was over 100 µM.

As for `Nc1nc(-n2c(-c3ccccc3)nc3c(Br)cc(Br)cc3c2=O)nnc1-c1cccc(Cl)c1Cl`, the GI50 was 5.33 µM and the TGI was over 100 µM.

With `Cc1ccnc2c1ccc1c(C)ccnc12`, the GI50 is 0.361 µM and the TGI was 3 µM.

On to `NS(=O)(=O)OC[C@@H]1C[C@@H](n2ccc3c(NC4CCc5ccccc54)ncnc32)C[C@@H]1O` (some centres undefined), for which the GI50 is 0.324 µM and the TGI amounted to 55.9 µM.

The compound `O=C1/C(=C/c2ccc(O)c(O)c2)CCC/C1=C\c1ccc(O)c(O)c1` had a TGI of over 25.4 µM.

For `Nc1ccccc1C#C/C=C\C#Cc1ccccc1OC(F)(F)F`, the GI50 was 1.11 µM and the TGI was determined as 23.2 µM.

Regarding `Cc1ccc(CN2CCC(C(=O)Nc3ccc(-c4cc5ccccc5[nH]4)cc3)CC2)o1`, the GI50 is over 100 µM and the TGI is over 100 µM.

On to `C=CCOc1ccc2c(C)cc(=O)oc2c1C`, for which the TGI is over 100 µM.

Compound `Fc1ccc(NC(=S)SCc2ccc3c(c2)OCO3)cc1F` gave a TGI of 77.3 µM.

Take `COc1cc2c(c(OC)c1OC)-c1ccc(NNC(N)=S)c(=O)cc1[C@@H](NC(C)=O)CC2`: the GI50 was 0.434 µM and the TGI was over 100 µM.

With `CCOC(=O)Cn1c(C(F)(F)F)nc2nc(Cl)c(Cl)nc21`, the TGI was over 69.5 µM.

`Cc1ccc(Cl)c2c(N=Nc3ccccc3[N+](=O)[O-])c(O)[nH]c12` came in with a TGI of over 100 µM.

As for `OC1CSSC1Cn1cnc2c(Nc3ccc(OCc4cccc(F)c4)c(Cl)c3)ncnc21` (centres undefined), the GI50 was 0.656 µM and the TGI was 13.9 µM.

For `C[C@@H](Oc1cc(-n2cnc3ccc(CN4CCN(C)CC4)cc32)sc1C(N)=O)c1ccccc1C(F)(F)F`, the GI50 was < 0.01 µM and 0.0149 µM; the TGI was 4.24 µM and > 2.07 µM.

In the next experiment the test system is M14 melanoma. Kind of experiment: NCI anticancer screen, dose series, 48 h.
In the case of `C=CC(=O)Nc1cc(Nc2ncc(C(=O)OC(C)C)c(-c3cn(C)c4ccccc34)n2)c(OC)cc1N(C)CCN(C)C`, the GI50 was 1.87 µM and the TGI came to 3.74 µM.

As to `COc1cnc2c(c1)C(=O)c1c-2n(CCCN2CCOCC2)c(=O)c2cc(F)ccc12`, the GI50 is 0.288 µM and the TGI was over 100 µM.

As to `CN(C)c1ccc(/C=C\C2=[N+](C)c3ccccc3C2(C)C)cc1`, the GI50 was 1.91 µM and the TGI is over 38.2 µM.

Take `Nc1nc(-n2c(-c3ccccc3)nc3c(Br)cc(Br)cc3c2=O)nnc1-c1cccc(Cl)c1Cl`: the GI50 is 2.64 µM and the TGI came out at 8.42 µM.

For the compound `Cc1ccnc2c1ccc1c(C)ccnc12`, the GI50 was 0.294 µM and the TGI came to 10.2 µM.

With `NS(=O)(=O)OC[C@@H]1C[C@@H](n2ccc3c(NC4CCc5ccccc54)ncnc32)C[C@@H]1O` (some centres undefined), the GI50 is 0.712 µM and the TGI was over 100 µM.

In turn, `O=C1/C(=C/c2ccc(O)c(O)c2)CCC/C1=C\c1ccc(O)c(O)c1` had a TGI of 18.4 µM.

In the case of `Nc1ccccc1C#C/C=C\C#Cc1ccccc1OC(F)(F)F`, the GI50 is 3.86 µM and the TGI is 17.8 µM.

Regarding `Cc1ccc(CN2CCC(C(=O)Nc3ccc(-c4cc5ccccc5[nH]4)cc3)CC2)o1`, the GI50 is 66.1 µM and the TGI was over 100 µM.

In the case of `C=CCOc1ccc2c(C)cc(=O)oc2c1C`, the TGI is over 100 µM.

`Fc1ccc(NC(=S)SCc2ccc3c(c2)OCO3)cc1F` had a TGI of 39.1 µM.

On to `COc1cc2c(c(OC)c1OC)-c1ccc(NNC(N)=S)c(=O)cc1[C@@H](NC(C)=O)CC2`, for which the GI50 is 0.284 µM and the TGI worked out at 0.735 µM.

As for `CCOC(=O)Cn1c(C(F)(F)F)nc2nc(Cl)c(Cl)nc21`, the TGI is over 100 µM.

In turn, `Cc1ccc(Cl)c2c(N=Nc3ccccc3[N+](=O)[O-])c(O)[nH]c12` gave a TGI of over 100 µM.

For the compound `OC1CSSC1Cn1cnc2c(Nc3ccc(OCc4cccc(F)c4)c(Cl)c3)ncnc21` (centres undefined), the GI50 is 0.0912 µM and the TGI stood at 0.288 µM.

Consider `C[C@@H](Oc1cc(-n2cnc3ccc(CN4CCN(C)CC4)cc32)sc1C(N)=O)c1ccccc1C(F)(F)F`, for which the GI50 is 0.0123 µM and the TGI came out at 2.31 µM.
